Source: patent publication US10144715B2, “Piperazine derivatives as liver X receptor modulators” (priority 2014, dated 2018)
Where two headings read alike, the source gives them in different places.

Assays:
[1] = molecular target: Gal4 DNA binding domain fused to the LBD of LXRα in HEK293 cells (Homo sapiens (Human), UniProt Q13133); test: LXR luciferase transcriptional reporter gene assay, agonist mode, LXRα; type: cell-based
[2] = molecular target: Gal4 DNA binding domain fused to the LBD of LXRβ in HEK293 cells (Homo sapiens (Human), UniProt P55055); test: cell-based
Gal4 DNA binding domain fused to the LBD of LXRβ in HEK293 cells, sequence (P55055 222-460 limits assumed): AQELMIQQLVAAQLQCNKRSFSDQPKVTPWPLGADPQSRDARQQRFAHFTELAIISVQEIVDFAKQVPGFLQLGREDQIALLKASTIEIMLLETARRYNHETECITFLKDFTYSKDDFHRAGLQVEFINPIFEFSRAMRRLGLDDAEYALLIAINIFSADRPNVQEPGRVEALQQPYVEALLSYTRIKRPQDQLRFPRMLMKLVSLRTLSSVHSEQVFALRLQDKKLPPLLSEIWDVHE

LXR α LBD protein [3] = molecular target: T1, LXR α LBD protein (Homo sapiens (Human), UniProt Q13133); test: Human LXRα coactivator recruitment FRET assay, agonist mode; type: biochemical
T1 sequence (Q13133 209-447): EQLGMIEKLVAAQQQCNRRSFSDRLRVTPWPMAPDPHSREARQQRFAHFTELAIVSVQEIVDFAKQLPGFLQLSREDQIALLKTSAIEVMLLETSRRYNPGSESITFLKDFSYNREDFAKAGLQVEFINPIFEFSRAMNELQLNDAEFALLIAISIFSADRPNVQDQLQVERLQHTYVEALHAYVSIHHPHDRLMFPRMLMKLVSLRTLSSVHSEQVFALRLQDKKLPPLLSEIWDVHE
Description: (§1) Two μL of the DMSO solutions were transferred to the plate and 38 μL of 10 nM LXRα-LBD or LXRβ-LBD (2×) were added immediately to the wells. The plate was shaken for 5 min at rt on an orbital micro shaker (DPC MicroMix® 5), after which 40 μL of 200 nM fluorescein-SRC2-3 peptide and 20 nM Terbium-anti-GST-antibody (Cat# PV3550, Life Technologies, Grand Island, N.Y.) solution (4×) were added to all. The plate was sealed and shaken for 2 min at rt, and incubated at rt for 2 h without agitation. […] The delay and window times were set at 100 and 200 microseconds, respectively. […] The percent control vs. compound concentration data were fit into a four-parameter model, and EC50 values were calculated from the fit as the concentrations corresponding to the inflection points on the concentration-response curves.

LXR β LBD protein [4] = molecular target: T2, LXR β LBD protein (Homo sapiens (Human), UniProt P55055); test: biochemical; type: biochemical
Description: as §1
Target sequence in this assay (P55055 222-460): as the sequence (P55055 222-460 limits assumed) above

LXR α LBD protein [5] = molecular target: T1, LXR α LBD protein; test: LXR α radioligand binding assay (SPA, competition with [3H]TO901317); details: read-out: LXRα Binding Ki
LXR β LBD protein [6] = molecular target: T2, LXR β LBD protein; test: biochemical; type: binding; details: read-out: LXRβ Binding Ki
Target sequence in this assay (P55055 222-460 limits assumed): as above

[7] = Biological Test Example 3, agonist mode
[8] = agonist mode, read-out: Cell LXRα EC50
[9] = agonist mode, read-out: FRET LXRβ EC50
[10] = agonist mode, read-out: Cell LXRβ EC50

Gal4 DNA binding domain fused to the LBD of LXRα in HEK293 cells, sequence (Q13133 209-447): as the sequence (Q13133 209-447) above

Molecule	EC50 [2] [µM]	EC50 (LXR β LBD protein [4]; read-out: FRET LXRβ EC50) [µM]	EC50 (LXR α LBD protein [3]; agonist mode) [µM]	FRET LXRβ efficacy (LXR β LBD protein [4]; agonist mode)	EC50 (LXR β LBD protein [4]; [9]) [µM]	EC50 ([1]; read-out: Cell LXRα EC50) [µM]	EC50 [2, 10] [µM]	further results
CS(=O)(=O)c1cccc(N2CCN(C[C@H]3CCN(CC(F)(F)F)C3)[C@H](c3ccccc3)C2)c1 (single isomer, unassigned) [48-60]	6.83	–	–	–	–	–	–	Cell LXRα efficacy [1]: 18622 (13) %; EC50 ([1]; Biological Test Example 2, agonist mode, read-out: Cell LXRα EC50): 18.6 µM; Cell LXRβ efficacy ([2]; Biological Test Example 2, agonist mode): 6832 (7) %; EC50 (LXR α LBD protein [3]; [7]): 16.1 µM; FRET LXRα efficacy (LXR α LBD protein [3]; [7]): 27%; EC50 (LXR β LBD protein [4]): 1.03 µM; FRET LXRβ efficacy (LXR β LBD protein [4]; [7]): 1032 (33) %
COC(=O)c1cnc(N2CCN(c3ccc(F)c(S(C)(=O)=O)c3)C[C@H]2C(C)C)nc1C(F)(F)F [9-2, methyl (R)-2-(4-(4-fluoro-3-(methylsulfonyl)phenyl)-2-isopropylpiperazin-1-yl)-4-(trifluoromethyl)pyrimidine-5-carboxylate]	0.086	0.009	–	–	–	–	–	Ki (LXR α LBD protein [5]): 0.095 µM; Ki (LXR β LBD protein [6]): 0.01 µM; Cell LXRα efficacy [1]: 543 (54) %; EC50 [1, 8]: 0.543 µM; Cell LXRβ efficacy [2]: 86 (34) %; FRET LXRβ efficacy (LXR β LBD protein [4]): 9 (91) %
CS(=O)(=O)c1cccc(N2CCN(Cc3ccc(C(F)(F)F)c(F)c3)[C@H](c3ccccc3)C2)c1 (single isomer, unassigned) [46-25]	2.56	18	> 50	17972 (116) %	–	–	–	EC50 [1, 8]: > 20 µM; Cell LXRβ efficacy ([2]; agonist mode): 2557 (13) %
CS(=O)(=O)c1cccc(N2CCN(Cc3ccc(C(F)(F)F)o3)[C@@H](c3ccccc3)C2)c1 [46-66, (S)-4-(3-(methylsulfonyl)phenyl)-2-phenyl-1-((5-(trifluoromethyl)furan-2-yl)methyl)piperazine]	> 20	–	–	–	> 50	–	–	Ki (LXR β LBD protein [6]): 0.207 µM
Cc1ccc(CN2CCN(c3cccc(S(C)(=O)=O)c3)C[C@H]2c2ccccc2)cc1 (single isomer, unassigned) [46-5]	> 20	7.16	> 50	–	–	> 20	–	FRET LXRβ efficacy (LXR β LBD protein [4]): 7159 (57) %
C[C@@]1(c2ccccc2)CN(c2cccc(S(C)(=O)=O)c2)CCN1Cc1ccc(C(F)(F)F)c(Cl)c1 (single isomer, unassigned) [46-35]	> 20	> 50	> 50	–	–	–	–	EC50 [1, 8]: > 20 µM
NS(=O)(=O)c1cccc(N2CCN(C[C@H]3CC[C@H](C(F)(F)F)CC3)[C@H](c3ccccc3)C2)c1 (single isomer, unassigned) [48-36]	–	–	> 50	25%	16.4	> 20	> 20	–
tert-butyl 2-methyl-4-(3-(methylsulfonyl)phenyl)-2-phenylpiperazine-1-carboxylate [1-10]	–	–	3.53	31%	0.5	> 20	> 20	FRET LXRα efficacy (LXR α LBD protein [3]; agonist mode): 28%
CS(=O)(=O)c1cccc(N2CCN(Cc3ccc(OC(F)F)cc3)[C@H](c3ccccc3)C2)c1 [46-10, (R)-1-(4-(difluoromethoxy)benzyl)-4-(3-(methylsulfonyl)phenyl)-2-phenylpiperazine]	> 20	25	40.7	–	–	–	–	EC50 [1]: > 20 µM; FRET LXRα efficacy (LXR α LBD protein [3]): 40680 (55) %; FRET LXRβ efficacy (LXR β LBD protein [4]): 24999 (94) %
C[C@@]1(c2ccccc2)CN(c2cccc(S(C)(=O)=O)c2)CCN1Cc1ccc(C(F)(F)F)cc1 [46-20, (R)-2-methyl-4-(3-(methylsulfonyl)phenyl)-2-phenyl-1-(4-(trifluoromethyl)benzyl)piperazine]	> 20	> 50	> 50	–	–	–	–	EC50 [1, 8]: > 20 µM
CS(=O)(=O)c1cccc(N2CCN(Cc3ccc(C(F)(F)F)o3)[C@H](c3ccccc3)C2)c1 [46-65, (R)-4-(3-(methylsulfonyl)phenyl)-2-phenyl-1-((5-(trifluoromethyl)furan-2-yl)methyl)piperazine]	> 20	–	–	25%	5.77	–	–	–
CS(=O)(=O)c1cc(N2CCN(C[C@H]3CC[C@H](C(F)(F)F)CC3)[C@H](c3ccccc3)C2)ccc1C(N)=O (single isomer, unassigned) [17-36]	–	–	0.808	79%	1.18	> 20	> 20	FRET LXRα efficacy (LXR α LBD protein [3]; agonist mode): 46%
CC(C)(O)c1ccc(CN2CCN(c3cccc(S(C)(=O)=O)c3)C[C@H]2c2ccccc2)cc1 [10-11, (R)-2-(4-((4-(3-(methylsulfonyl)phenyl)-2-phenylpiperazin-1-yl)methyl)phenyl)propan-2-ol]	> 20	> 50	> 50	–	–	> 20	–	–
CS(=O)(=O)c1cc(N2CCN(C[C@H]3CC[C@H](C(F)(F)F)CC3)[C@H](c3ccccc3)C2)ccc1C#N (single isomer, unassigned) [50-3]	–	–	–	–	–	> 20	–	EC50 ([2]; Biological Test Example 2, agonist mode, read-out: Cell LXRβ EC50): > 20 µM; EC50 (LXR α LBD protein [3]; [7]): 12.9 µM; FRET LXRα efficacy (LXR α LBD protein [3]; [7]): 71%; FRET LXRβ efficacy (LXR β LBD protein [4]; [7]): 52%; EC50 (LXR β LBD protein [4]; Biological Test Example 3, agonist mode, read-out: FRET LXRβ EC50): 1.66 µM
CS(=O)(=O)c1cccc(N2CCN(C[C@H]3CC[C@H](C(F)(F)F)CC3)[C@H](c3ccccc3)C2)c1 (single isomer, unassigned) [48-32]	–	–	15.3	97%	3.8	19	3.34	Cell LXRα efficacy [1]: 19000 (4) %; Cell LXRβ efficacy ([2]; agonist mode): 15%; FRET LXRα efficacy (LXR α LBD protein [3]; agonist mode): 59%
CC(C)[C@H]1CC[C@H](CN2CCN(c3cccc(S(C)(=O)=O)c3)C[C@H]2c2ccccc2)CC1 (single isomer, unassigned) [48-14]	–	–	> 50	67%	12.3	> 20	> 20	–
NS(=O)(=O)c1cccc(N2CCN(C[C@H]3CC[C@H](C(F)(F)F)CC3)[C@@H](c3ccccc3)C2)c1 (single isomer, unassigned) [48-37]	–	–	2.35	30%	1.29	2.83	1.18	Cell LXRα efficacy [1]: 2829 (39) %; Cell LXRβ efficacy ([2]; agonist mode): 19%; FRET LXRα efficacy (LXR α LBD protein [3]; agonist mode): 33%
CS(=O)(=O)c1cccc(N2CCN(Cc3ccc(C(F)(F)F)cn3)[C@@H](c3ccccc3)C2)c1 [46-64, (S)-4-(3-(methylsulfonyl)phenyl)-2-phenyl-1-((5-(trifluoromethyl)pyridin-2-yl)methyl)piperazine]	5.8	–	–	34%	1.86	–	–	Ki (LXR β LBD protein [6]): > 2.5 µM; Cell LXRβ efficacy ([2]; agonist mode): 5804 (13) %
CC(C)[C@@H]1CN(c2ccc(F)c(S(C)(=O)=O)c2)CCN1c1nccc(C2CC2)n1 [7-10, (R)-4-cyclopropyl-2-(4-(4-fluoro-3-(methylsulfonyl)phenyl)-2-isopropylpiperazin-1-yl)pyrimidine]	0.095	–	0.292	–	–	0.586	–	Ki (LXR α LBD protein [5]): 0.236 µM; Ki (LXR β LBD protein [6]): 0.013 µM; Cell LXRα efficacy [1]: 586 (42) %; Cell LXRβ efficacy [2]: 95 (23) %; FRET LXRα efficacy (LXR α LBD protein [3]; agonist mode): 55%
CS(=O)(=O)c1cccc(N2CCN(Cc3ccc(C(F)(F)F)cn3)[C@H](c3ccccc3)C2)c1 [46-63, (R)-4-(3-(methylsulfonyl)phenyl)-2-phenyl-1-((5-(trifluoromethyl)pyridin-2-yl)methyl)piperazine]	> 20	–	–	50%	7.1	–	–	–
